Assay results as given in ChEMBL document CHEMBL1201862, “PubChem BioAssay data set” (2004).
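Cultured in 96-well plates, cells were exposed to test compound for 48 hours across five concentrations. Abbreviation: GI50, concentration required for 50% inhibition of growth.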 Active and inactive are the calls of the source. Rule as the data show it: active = GI50 up to about 1.1 µM and inactive = higher.

Key:
Assay in all cases: DTP human tumour cell line panel, 48 h
786-0 = system: 786-0
ACHN = system: ACHN
DLD-1 = system: DLD-1
HCT-15 = system: HCT-15
HL-60 = system: HL-60
HOP-62 = system: HOP-62
IGROV-1 = system: IGROV-1
K562 = system: K562
KM12 = system: KM12
M14 = system: M14
NCI-H460 = system: NCI-H460
SF-268 = system: SF-268
SNB-19 = system: SNB-19
SNB-75 = system: SNB-75
UACC-257 = system: UACC-257
A498 = system: A498
BT-549 = system: BT-549
MDA-MB-231 = system: MDA-MB-231
SK-MEL-5 = system: SK-MEL-5
TK-10 = system: TK-10

| SMILES | GI50 (786-0) | GI50 (ACHN) | GI50 (DLD-1) | GI50 (HCT-15) [µM] | GI50 (HL-60) | GI50 (HOP-62) | GI50 (IGROV-1) | GI50 (K562) | GI50 (KM12) | GI50 (M14) | GI50 (NCI-H460) | GI50 (SF-268) | GI50 (SNB-19) | GI50 (SNB-75) | GI50 (UACC-257) | GI50 (A498) | GI50 (BT-549) | GI50 (MDA-MB-231) | GI50 (SK-MEL-5) | GI50 (TK-10) |
| --- | --- | --- | --- | --- | --- | --- | --- | --- | --- | --- | --- | --- | --- | --- | --- | --- | --- | --- | --- | --- |
| CC1(CO)OC1COCc1ccccc1 (stereo not given) | > 100 µM (inactive) | > 100 µM (inactive) | > 100 µM (inactive) | > 100 | > 100 µM (inactive) | > 100 µM (inactive) | > 100 µM (inactive) | > 100 µM (inactive) | > 100 µM (inactive) | > 100 µM (inactive) | > 100 µM (inactive) | > 100 µM (inactive) | > 100 µM (inactive) | > 100 µM (inactive) | > 100 µM (inactive) | – | – | – | – | – |
| CCOC(=O)C1=C(C)C2C=C(c3cccs3)CC(c3ccc(Cl)cc3)=C2OC1=O (stereo not given) | 20.6 µM (inactive) | 32.7 µM (inactive) | – | 16.8 | 4.69 µM (inactive) | 86.1 µM (inactive) | 26.3 µM (inactive) | 5.05 µM (inactive) | 15.2 µM (inactive) | 58.3 µM (inactive) | 64.4 µM (inactive) | 97.1 µM (inactive) | 45.2 µM (inactive) | 50.8 µM (inactive) | 17.7 µM (inactive) | 83.2 µM (inactive) | 31.5 µM (inactive) | 92.3 µM (inactive) | 27 µM (inactive) | 31.7 µM (inactive) |
| Cc1cc(=O)nc(Sc2ccc([N+](=O)[O-])cc2[N+](=O)[O-])[nH]1 | 16.7 µM (inactive) | 19.8 µM (inactive) | – | 14.2 | 3.33 µM (inactive) | 24.5 µM (inactive) | 80.2 µM (inactive) | 3.4 µM (inactive) | 22.2 µM (inactive) | 16.4 µM (inactive) | 23 µM (inactive) | 24.4 µM (inactive) | 26.1 µM (inactive) | 1.53 µM (inactive) | 21.2 µM (inactive) | > 100 µM (inactive) | 12.8 µM (inactive) | 23.2 µM (inactive) | 1.75 µM (inactive) | 15.8 µM (inactive) |
| COc1cc(-c2cccs2)sc1-c1cccs1 | 39.3 µM (inactive) | 53.5 µM (inactive) | 8.17 µM (inactive) | 4.4 | 14.3 µM (inactive) | – | 25.5 µM (inactive) | 13.6 µM (inactive) | 27.7 µM (inactive) | 35.3 µM (inactive) | 26 µM (inactive) | 53.6 µM (inactive) | > 100 µM (inactive) | 14 µM (inactive) | 39.7 µM (inactive) | – | – | – | 29.7 µM (inactive) | 41.6 µM (inactive) |
| C=CCCCCCCCCC(=O)NS(=O)(=O)c1ccccc1 | > 100 µM (inactive) | 71 µM (inactive) | 96.6 µM (inactive) | – | 44.7 µM (inactive) | > 100 µM (inactive) | > 100 µM (inactive) | 54.5 µM (inactive) | 73.6 µM (inactive) | > 100 µM (inactive) | > 100 µM (inactive) | > 100 µM (inactive) | > 100 µM (inactive) | 92.5 µM (inactive) | > 100 µM (inactive) | > 100 µM (inactive) | – | – | – | > 100 µM (inactive) |
| CN1CCCCC1CCN1c2ccccc2Sc2ccc([S+](C)[O-])cc21 (stereo not given) [MESORIDAZINE] | > 100 µM (inactive) | > 100 µM (inactive) | – | > 100 | > 100 µM (inactive) | > 100 µM (inactive) | > 100 µM (inactive) | > 100 µM (inactive) | > 100 µM (inactive) | > 100 µM (inactive) | > 100 µM (inactive) | > 100 µM (inactive) | > 100 µM (inactive) | > 100 µM (inactive) | > 100 µM (inactive) | > 100 µM (inactive) | > 100 µM (inactive) | > 100 µM (inactive) | > 100 µM (inactive) | > 100 µM (inactive) |
| COc1ccc(/C=C2\C(=O)N(C(=O)c3ccc(NC(C)=O)cc3)N=C2C)cc1OC | > 100 µM (inactive) | > 100 µM (inactive) | > 100 µM (inactive) | > 100 | > 100 µM (inactive) | > 100 µM (inactive) | – | > 100 µM (inactive) | > 100 µM (inactive) | > 100 µM (inactive) | > 100 µM (inactive) | > 100 µM (inactive) | > 100 µM (inactive) | > 100 µM (inactive) | > 100 µM (inactive) | – | – | – | > 100 µM (inactive) | > 100 µM (inactive) |
| COc1cc2c(NCCCCCO)ncnc2c(OC)c1OC | > 100 µM (inactive) | > 100 µM (inactive) | – | > 100 | > 100 µM (inactive) | > 100 µM (inactive) | > 100 µM (inactive) | > 100 µM (inactive) | > 100 µM (inactive) | > 100 µM (inactive) | > 100 µM (inactive) | > 100 µM (inactive) | > 100 µM (inactive) | > 100 µM (inactive) | > 100 µM (inactive) | > 100 µM (inactive) | > 100 µM (inactive) | 95.5 µM (inactive) | > 84.7 µM (inactive) | > 100 µM (inactive) |
| CCOC(=O)C1(Cc2ccccc2)CCCCCN1 (stereo not given) | > 100 µM (inactive) | > 100 µM (inactive) | > 100 µM (inactive) | > 100 | > 100 µM (inactive) | > 100 µM (inactive) | > 100 µM (inactive) | > 100 µM (inactive) | – | > 100 µM (inactive) | > 100 µM (inactive) | > 100 µM (inactive) | – | 32.8 µM (inactive) | – | – | – | – | – | > 100 µM (inactive) |
| CSC(=N\c1ccccc1)/N=C(\SCc1ccccc1)N(C)C | 0.531 µM (active) | 1 µM (active) | – | 0.463 | 0.172 µM (active) | 1.7 µM (inactive) | 0.923 µM (active) | 0.05 µM (active) | 0.48 µM (active) | 0.789 µM (active) | 0.161 µM (active) | 0.971 µM (active) | 1.39 µM (inactive) | 1.62 µM (inactive) | 1.57 µM (inactive) | 1.65 µM (inactive) | 1.42 µM (inactive) | 1.17 µM (inactive) | 1.47 µM (inactive) | 1.15 µM (inactive) |
| O=P(Nc1ccccc1)(Oc1ccccc1)N1CCN(c2ccccc2)CC1 (stereo not given) | 22.1 µM (inactive) | 22.4 µM (inactive) | – | 13.8 | 25 µM (inactive) | 18 µM (inactive) | 20.8 µM (inactive) | 49.1 µM (inactive) | 17.4 µM (inactive) | 15.2 µM (inactive) | 17.4 µM (inactive) | 23.2 µM (inactive) | 15.8 µM (inactive) | 15.2 µM (inactive) | 20.9 µM (inactive) | 20.2 µM (inactive) | 16 µM (inactive) | 14.9 µM (inactive) | 19.4 µM (inactive) | 21.8 µM (inactive) |
| Oc1cc(-c2ccc[nH]2)nc2cc3c(cc12)OCO3 | 40.6 µM (inactive) | 88.1 µM (inactive) | 34.4 µM (inactive) | 23.2 | 26.9 µM (inactive) | 17.6 µM (inactive) | 33.3 µM (inactive) | 17.1 µM (inactive) | – | 32.2 µM (inactive) | 25.2 µM (inactive) | – | 37.7 µM (inactive) | 13.8 µM (inactive) | 64.7 µM (inactive) | 18.6 µM (inactive) | – | – | – | 62.8 µM (inactive) |
| COC(=O)C1=C(C(=O)OC)SC2(S1)C(C(=O)OC)=C(C(=O)OC)Sc1c2ssc1=O | 0.456 µM (active) | 0.927 µM (active) | – | 0.369 | 0.016 µM (active) | 1.83 µM (inactive) | 1.65 µM (inactive) | 0.547 µM (active) | 4.78 µM (inactive) | 1.12 µM (inactive) | 2.88 µM (inactive) | 2.52 µM (inactive) | 18.5 µM (inactive) | 4.01 µM (inactive) | 1.51 µM (inactive) | 1.64 µM (inactive) | 1.5 µM (inactive) | 1.67 µM (inactive) | 1.21 µM (inactive) | 1.58 µM (inactive) |
| CCOC(=O)C1=C(C)N(NC(N)=O)C2(N)N(NC(N)=O)C(C)=C(C(=O)OCC)C12C(=O)OCC (stereo not given) | > 100 µM (inactive) | > 100 µM (inactive) | > 100 µM (inactive) | > 100 | – | > 100 µM (inactive) | > 100 µM (inactive) | > 100 µM (inactive) | > 100 µM (inactive) | > 100 µM (inactive) | > 100 µM (inactive) | > 100 µM (inactive) | > 100 µM (inactive) | 47.8 µM (inactive) | > 100 µM (inactive) | > 100 µM (inactive) | – | – | > 100 µM (inactive) | – |
| C=C1CC2(CC(c3ccccc3OC)OC(c3ccccc3OC)C2)OC1=O (stereo not given) | 1.63 µM (inactive) | 2.29 µM (inactive) | – | 2.28 | 0.771 µM (active) | 13.6 µM (inactive) | 1.74 µM (inactive) | 2.06 µM (inactive) | 2.27 µM (inactive) | 1.72 µM (inactive) | 5.75 µM (inactive) | 2.55 µM (inactive) | 7.55 µM (inactive) | 2.59 µM (inactive) | 2.07 µM (inactive) | 5.81 µM (inactive) | 1.64 µM (inactive) | 1.77 µM (inactive) | 2.58 µM (inactive) | 1.71 µM (inactive) |
| O=[N+]([O-])c1nccn1COCCBr | > 100 µM (inactive) | > 100 µM (inactive) | > 100 µM (inactive) | > 100 | > 100 µM (inactive) | > 100 µM (inactive) | – | > 100 µM (inactive) | > 100 µM (inactive) | > 100 µM (inactive) | > 100 µM (inactive) | > 100 µM (inactive) | > 100 µM (inactive) | > 100 µM (inactive) | > 100 µM (inactive) | – | – | – | > 100 µM (inactive) | > 100 µM (inactive) |
